In patent publication EP0366632A1, “Alternative energy substrates” (priority 1988, dated 1990):
Several values for one entry are separate records, joined by “and”; a condition that tells them apart may be missing. Identical values can stand only once. Entries after “also recorded” stand apart in the source; their conditions may differ.

Legend:
[1] = test system: Escherichia coli ATCC 8739; assay: Microorganism count in 2% and 0.2% ester emulsions (Example 14); type: cell-based
Experimental: The emulsions contained egg-yolk phospholipid 1,2% and sterile water, in addition to ester. The emulsions were prepared aseptically, by emulsifying sterile-filtered ester with a steriled dispersion of egg-yolk phospholipids.
Aliquots of these emulsions were diluted with phosphate buffer (0.01 M, pH=7.0) in the proportions of 1 and 10 and 1 and 100 in respective emulsions. Escherichia coli ATCC 8739 was added to the solutions. The solutions were then incubated at +37°C for 20 hours. The microorganism count was carried out after 1-5 minutes, 2 and 20 hours, in the manner described in microbiological literature. Parallel with the above tests, a check was carried out on phospholipide solution 1,2% and TSB (Tryptone soya broth) with additions of Escherichia coli ATCC 8739. The latter substrate was tested to ascertain whether or not the control microorganisms were viable. […] The starting concentration was about 10⁴. In the samples containing 4-methyl-3-oxo-pentanoic acid ethyl ester having the concentrations of 2% and 0.2%, the number of microorganisms present per ml after 1-5 minutes was 0 and 10⁴ respectively. After 2 hours, the microorganism count was 0 and 10 respectively, and after 20 hours 0 and 10 respectively. In the samples containing 5-methyl-3-oxo-hexanoic acid ethyl ester with the concentrations of 2% and 0.2%, the microorganism count per ml was 10 and 10 respectively after 1-5 minutes, 0 and 0 respectively after 2 hours, and 0 and 0 respectively after 20 hours.

[2] = Cold storage of fat emulsion (Intralipid) with ester admixture: visual inspection, pH, mean particle size; type: physicochemical; conditions: for emulsion quality (oil droplets, creaming, oil separation), daily inspection: Example 5: mother concentrate in Intralipid 10%; for emulsion quality (oil droplets, creaming, oil separation), daily inspection / emulsion stability, daily visual inspection: +5°C; for emulsion quality (oil droplets, creaming, oil separation), daily inspection / emulsion quality, daily visual inspection / emulsion stability, daily visual inspection: 5 days; for emulsion quality, daily visual inspection: 5°C
Experimental: A so-called mother concentrate was prepared by dissolving 6 g of egg-yolk phospholipids in 40 g of 4-methyl-3-oxo-pentanoic acid ethyl ester at +60°C, while stirring. 34 g of 99% ethyl alcohol were then added to the solution, whereafter the solution was cooled to room temperature and dispensed into 20 ml glass flasks. Nitrogen gas was then bubbled through the liquid and the flasks then stoppered and capsuled. The bottles were then autoclaved at +120°C and at 118 kPa for 20 minutes. A 10% fat emulsion for parenteral nutrient administration (Intralipid^R retailed by KabiVitrum AB, Stockholm) was added to the preparation under strict asceptic conditions, to a 4-methyl-3-oxo-pentanoic acid ethyl ester concentration of 0.2, 1 and 3% respectively. The emulsion was shaken for 5 minutes in a shaking machine and then placed in a cold environment (+5°C). The emulsion was thereafter observed over a 5 day period, wherewith a daily inspection was carried out to assess the formation of oil droplets, creaming or oil separation. The assessment was made in comparison with a known emulsion for parenteral use (Intralipid^R 10%). […] Subsequent to 5 days storage, an analysis was made of the pH and mean particle size in a Coulter nanosizer. The following values were obtained:
(§1) A so-called mother concentrate produced by dissolving 6 g egg-yolk phospholipids in 40 g of 4-methyl-3-oxo-pentanoic acid-ethyl ester at +60°C, while stirring the system. 34 g of 99% ethyl alcohol were then added to the solution, whereafter the solution was cooled to room temperature and dispensed into 20 ml glass flasks. Nitrogen gas was perculated through the contents of the flasks, and the flasks subsequently stoppered and fitted with capsules. The flasks were then autoclaved at 120°C and 118 kPa over a period of 20 minutes. This preparation was added to a 20% fat emulsion (Intralipid^R) under strict aseptic conditions, such that the concentation of 4-methyl-3-oxo-pentanoic acid ethyl ester was 0.2 and 1 and 3% respectively. The emulsion was shaken for 5 minutes in a shaker and then placed in a cold environment (5°C). The emulsion was inspected over a period of 5 calender days, wherewith a visual inspection was carried out daily in order to ascertain the occurrence of any oil droplets that may form, creaming or oil separation. The assay was effected by comparison with a known emulsion for parenteral use (Intralipid^R 20%). […] The pH of the emulsion was measured after a 5 day storage period. The mean particle size was measured in a Coulter^R nanosizer. The following values were obtained:
as §1, with “prepara tion” for “preparation”, “10%” for “20%”, “10%).” for “20%).”, “obtained: […]” for “obtained:”

[3] = Total parenteral nutrition (TPN) with ester as energy substitute in rats; conditions: 9 days
Experimental: Sprague-Dawley male rats weighing 180-190 g were sur­gically fitted with a central vein catheter protected by a saddle (Roos et al, 1981). Total parenteral nutrition (TPN) was administered in accordance with the following standard formula: Fat: 8 g/kg body weight and 24 hours Nitrogen: 1,2 g/kg body weight and 24 hours Total energy supplied: 1257 kJ/kg body weight and 24 hours Liquid: 300 ml/kg body weight and 24 hours The glucose to fat ratio was 70-30 energy percent. The energy percentage obtained from the energy substitutes during the test period corresponded to about 5% NPC. The TPN-mixture was obtained by mixing Vamin^R 14 (a solution of essential and non-essential amino acids for paren­teral nutrient administration, retailed by KabiVitrum AB) with no electrolytes, glucose solution 50% and Intralipid^R 20% in suitable proportions and adding adequate quantities of electrolytes, trace minerals and vitamins. Subsequent to infusing the rats continuously for one week (20 hours/day), the animals were divided randomly into three groups, with 6 animals in each group. The animals of one group were administered with the same TPN-formula as that previously mentioned (the reference group). […] The compounds were given in a dosage of 2 g/kg body weight and 24 hours in a yield corres­ponding to equivalent glucose energy quantities. In other respects, the TPN-program or formula was the same as that for the reference group. The experiment was then continued for a further 9 days, during which the weights of the animals were recorded daily and urine collected and frozen. At the end of the test period, the rats were killed by heart puncture while under a pentobarbital anesthetic and an autopsy was performed on the rat carcasses with microscopic examination. The body organs were sent to a laboratory for pathological assay.

[4] = Example 5: Intralipid 10%, 0.2% admix, after 5 days storage
[5] = Example 5: Intralipid 10%, 1% admix, after 5 days storage
[6] = Example 5: Intralipid 10%, 3% admix, after 5 days storage
[7] = Example 30: Intralipid 20%, 0.2% admix
[8] = Example 30: Intralipid 20%, 1% admix
[9] = Example 30: Intralipid 20%, 3% admix
[10] = Example 31: Intralipid 10%, 0.2% admix
[11] = Example 31: Intralipid 10%, 1% admix
[12] = Example 31: Intralipid 10%, 3% admix
[13] = Example 31: Intralipid 10%, 5% admix

**Q.** For `CCOC(=O)CC(=O)C(C)C` [4-methyl-3-oxo-pentanoic acid ethyl ester], which microorganism count ([1]; 0.2%, after 2 hours) is on record?
**A.** 10 per ml

**Q.** And the microorganism count ([1]; 0.2%, after 20 hours)?
**A.** 10 per ml

**Q.** What about the number of microorganisms ([1]; 2%, after 1-5 minutes, +37°C, starting concentration about 10⁴) of the same compound?
**A.** 0 per ml

**Q.** What about the microorganism count ([1]; 2%, after 2 hours) of the same compound?
**A.** 0 per ml

**Q.** And the microorganism count ([1]; 2%, after 20 hours)?
**A.** 0 per ml

**Q.** What about the “Mean particle size (single readings, Coulter nanosizer)” value [2, 4] of the same compound?
**A.** 258 and 264 and 267 and 250

**Q.** And the “Mean particle size, X” value [2, 4]?
**A.** 261

**Q.** And the pH [2, 4]?
**A.** 7.2

**Q.** What about the “Mean particle size (single readings, Coulter nanosizer)” value [2, 5] of the same compound?
**A.** 245 and 253 and 250 and 235 and 242

**Q.** What about the “Mean particle size, X” value [2, 5] of the same compound?
**A.** 246

**Q.** What about the pH [2, 5] of the same compound?
**A.** 7.0

**Q.** What about the “Mean particle size (single readings, Coulter nanosizer)” value [2, 6] of the same compound?
**A.** 264 and 258 and 248 and 250

**Q.** What about the “Mean particle size, X” value [2, 6] of the same compound?
**A.** 258

**Q.** And the pH [2, 6]?
**A.** 6.8

**Q.** What about the “emulsion quality (oil droplets, creaming, oil separation), daily inspection” value ([2]; 1% addition) of the same compound?
**A.** had no affect on the quality

**Q.** What about the “emulsion quality (oil droplets, creaming, oil separation), daily inspection” value ([2]; 3% addition) of the same compound?
**A.** fully acceptable, but deteriorated slowly during day 4 and 5

**Q.** What about the “Mean particle size (single readings, Coulter nanosizer)” value [2, 7] of the same compound?
**A.** 325 and 316 and 320 and 327

**Q.** What about the “Mean particle size, X” value [2, 7] of the same compound?
**A.** 323

**Q.** And the pH ([2]; Example 30: Intralipid 20%, 0.2% admix, after 5 day storage)?
**A.** 7.3

**Q.** And the “Mean particle size (single readings, Coulter nanosizer)” value [2, 8]?
**A.** 323 and 327 and 329 and 319 and 336

**Q.** And the “Mean particle size, X” value [2, 8]?
**A.** 326

**Q.** What about the pH ([2]; Example 30: Intralipid 20%, 1% admix, after 5 day storage) of the same compound?
**A.** 6.9

**Q.** What about the “Mean particle size (single readings, Coulter nanosizer)” value [2, 9] of the same compound?
**A.** 322 and 319 and 320 and 333

**Q.** What about the “Mean particle size, X” value [2, 9] of the same compound?
**A.** 323

**Q.** And the pH ([2]; Example 30: Intralipid 20%, 3% admix, after 5 day storage)?
**A.** 6.5

**Q.** And the “emulsion quality, daily visual inspection” value ([2]; Example 30: mother concentrate in Intralipid 20%, 0.2% addition)?
**A.** No change in quality

**Q.** And the “emulsion quality, daily visual inspection” value ([2]; Example 30: mother concentrate in Intralipid 20%, 1% addition)?
**A.** No change in quality

**Q.** And the “emulsion quality, daily visual inspection” value ([2]; Example 30: mother concentrate in Intralipid 20%, 3-percent mixture)?
**A.** fully acceptable over the first 3 days

**Q.** What about the “Mean particle size (single readings, Coulter nanosizer)” value [2, 10] of the same compound?
**A.** 241 and 239 and 246

**Q.** And the “Mean particle size, X” value [2, 10]?
**A.** 241

**Q.** And the pH ([2]; Example 31: Intralipid 10%, 0.2% admix, after 5 day storage)?
**A.** 7.3

**Q.** And the “Mean particle size (single readings, Coulter nanosizer)” value [2, 11]?
**A.** 244 and 249 and 246 and 251

**Q.** What about the “Mean particle size, X” value [2, 11] of the same compound?
**A.** 247

**Q.** And the pH ([2]; Example 31: Intralipid 10%, 1% admix, after 5 day storage)?
**A.** 6.9

**Q.** What about the “Mean particle size (single readings, Coulter nanosizer)” value [2, 12] of the same compound?
**A.** 249 and 246 and 240 and 236 and 243

**Q.** And the “Mean particle size, X” value [2, 12]?
**A.** 243

**Q.** And the pH ([2]; Example 31: Intralipid 10%, 3% admix, after 5 day storage)?
**A.** 6.7

**Q.** And the “Mean particle size (single readings, Coulter nanosizer)” value [2, 13]?
**A.** 244 and 252 and 254

**Q.** What about the “Mean particle size, X” value [2, 13] of the same compound?
**A.** 251

**Q.** And the pH ([2]; Example 31: Intralipid 10%, 5% admix, after 5 day storage)?
**A.** 6.7

**Q.** What about the “emulsion quality, daily visual inspection” value ([2]; Example 31: mother concentrate in Intralipid 10%, 0.2% addition) of the same compound?
**A.** No change in quality

**Q.** What about the “emulsion quality, daily visual inspection” value ([2]; Example 31: mother concentrate in Intralipid 10%, 1% addition) of the same compound?
**A.** No change in quality

**Q.** What about the “emulsion quality, daily visual inspection” value ([2]; Example 31: mother concentrate in Intralipid 10%, 3% addition) of the same compound?
**A.** No change in quality; also recorded: fully acceptable over the first 3 days

**Q.** And the pH ([2]; Example 34: 20 percent fat emulsion, 5% emulsion, end of 5-day period (reference emulsion pH=7.9))?
**A.** 5.0

**Q.** And the “emulsion stability, daily visual inspection” value (“emulsion stability” for short) ([2]; Example 34: pure ester in 10% fat emulsion (Intralipid), 0.2%)?
**A.** stable over the whole of the test period

**Q.** And the “emulsion stability” value ([2]; Example 34: pure ester in 10% fat emulsion, 1%)?
**A.** stable over the whole of the test period

**Q.** And the “emulsion stability” value ([2]; Example 34: pure ester in 10% fat emulsion, 3%)?
**A.** stable over the whole of the test period

**Q.** What about the “emulsion stability” value ([2]; Example 34: pure ester in 10% fat emulsion, 5%) of the same compound?
**A.** stable over the whole of the test period; also recorded: stable over the first 2 days

**Q.** And the “emulsion stability” value ([2]; Example 34: pure ester in 20 percent fat emulsion, 1% admixture)?
**A.** remained stable over the whole of the test period

**Q.** And the “emulsion stability” value ([2]; Example 34: pure ester in 20 percent fat emulsion, 5% admixture)?
**A.** remained stable for 2 days

**Q.** And the “toxicity at the dosages tested” value ([3]; 2 g/kg body weight and 24 hours)?
**A.** non-toxic

**Q.** And the “average growth per day during the whole of the test period” value ([3]; ester 2 g/kg body weight and 24 hours in place of equivalent glucose energy)?
**A.** 3.7 ± 0.8 g
